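Test compounds were applied to cells in 96-well plates for 48 hours at 5 doses. GI50 marks 50% less growth.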 The source made the active and inactive calls. No stated cut-off is given here; in the data, active = GI50 up to about 1.1 µM and inactive = higher.
What was measured:
Assay in all cases: growth of human tumour cells (NCI), 48 h
[1] = system: BT-549
[2] = system: HCT-15
[3] = system: UO-31
[4] = system: SK-OV-3
[5] = system: M14
[6] = system: MDA-MB-231
[7] = system: HL-60
[8] = system: PC-3
[9] = system: SF-295
[10] = system: MOLT-4
[11] = system: A498
[12] = system: Malme-3M
[13] = system: 786-0
[14] = system: NCI-H522
[15] = system: HOP-62
[16] = system: KM12
[17] = system: CAKI-1
[18] = system: SN12C
[19] = system: LOX IMVI
[20] = system: K562
[21] = system: SNB-19
[22] = system: SK-MEL-5
[23] = system: OVCAR-8
[24] = system: SF-268
[25] = system: SK-MEL-28
[26] = system: Hs-578T
[27] = system: NCI-H23
[28] = system: CCRF-CEM
[29] = system: TK-10
[30] = system: RPMI-8226
[31] = system: SNB-75
[32] = system: NCI-H226
[33] = system: MCF7
[34] = system: UACC-62
[35] = system: IGROV-1
[36] = system: HCC 2998
[37] = system: DU-145
[38] = system: ACHN
[39] = system: NCI-H460
[40] = system: HT-29
[41] = system: A549
[42] = system: MDA-MB-435
[43] = system: EKVX
[44] = system: HCT-116
[45] = system: COLO 205
[46] = system: UACC-257
[47] = system: SR
[48] = system: T47D
[49] = system: SF-539
[50] = system: SW-620
[51] = system: OVCAR-3
[52] = system: OVCAR-4
[53] = system: NCI/ADR-RES
[54] = system: RXF 393
[55] = system: MDA-N
[56] = system: HOP-92
[57] = system: SK-MEL-2
[58] = system: OVCAR-5
[59] = system: U-251

NS(=O)(=O)c1ccc2c(c1)OCCOCCOCCOCCO2
GI50 [1]: > 100 µM (inactive) | GI50 [2]: > 100 µM | GI50 [3]: > 100 µM (inactive) | GI50 [4]: > 100 µM (inactive) | GI50 [5]: > 100 µM (inactive) | GI50 [6]: > 100 µM (inactive) | GI50 [7]: > 100 µM (inactive) | GI50 [8]: > 100 µM (inactive) | GI50 [9]: > 100 µM (inactive) | GI50 [10]: > 100 µM (inactive) | GI50 [11]: > 100 µM (inactive) | GI50 [12]: > 100 µM (inactive) | GI50 [13]: > 100 µM (inactive) | GI50 [14]: > 100 µM (inactive) | GI50 [15]: > 100 µM (inactive) | GI50 [16]: > 100 µM (inactive) | GI50 [17]: > 100 µM (inactive) | GI50 [18]: > 100 µM (inactive) | GI50 [19]: > 100 µM (inactive) | GI50 [20]: > 100 µM (inactive) | GI50 [21]: > 100 µM (inactive) | GI50 [22]: > 100 µM (inactive) | GI50 [23]: > 100 µM (inactive) | GI50 [24]: > 100 µM (inactive) | GI50 [25]: > 100 µM (inactive) | GI50 [26]: > 100 µM (inactive) | GI50 [27]: > 100 µM (inactive) | GI50 [28]: > 100 µM (inactive) | GI50 [29]: > 100 µM (inactive) | GI50 [30]: > 100 µM (inactive) | GI50 [31]: > 100 µM (inactive) | GI50 [32]: > 100 µM (inactive) | GI50 [33]: > 100 µM (inactive) | GI50 [34]: > 100 µM (inactive) | GI50 [35]: > 100 µM (inactive) | GI50 [36]: > 100 µM (inactive) | GI50 [37]: > 100 µM (inactive) | GI50 [38]: > 100 µM (inactive) | GI50 [39]: > 100 µM (inactive) | GI50 [40]: > 100 µM (inactive) | GI50 [41]: > 100 µM (inactive) | GI50 [42]: > 100 µM (inactive) | GI50 [43]: > 100 µM (inactive) | GI50 [44]: > 100 µM (inactive) | GI50 [45]: > 100 µM (inactive) | GI50 [46]: > 100 µM (inactive) | GI50 [47]: > 100 µM (inactive) | GI50 [48]: > 100 µM (inactive) | GI50 [49]: > 100 µM (inactive) | GI50 [50]: > 100 µM (inactive)

CCCCCCCCCCCCCCCC(=O)OCC1CCCN2CCCCC12 (stereo not given)
GI50 [51]: > 100 µM (inactive) | GI50 [1]: > 100 µM (inactive) | GI50 [2]: > 100 µM | GI50 [3]: > 100 µM (inactive) | GI50 [4]: > 100 µM (inactive) | GI50 [5]: > 100 µM (inactive) | GI50 [6]: > 100 µM (inactive) | GI50 [7]: > 100 µM (inactive) | GI50 [8]: > 100 µM (inactive) | GI50 [52]: > 100 µM (inactive) | GI50 [9]: > 100 µM (inactive) | GI50 [10]: > 100 µM (inactive) | GI50 [11]: > 100 µM (inactive) | GI50 [12]: > 100 µM (inactive) | GI50 [13]: > 100 µM (inactive) | GI50 [15]: > 100 µM (inactive) | GI50 [16]: > 100 µM (inactive) | GI50 [53]: > 100 µM (inactive) | GI50 [17]: > 100 µM (inactive) | GI50 [18]: > 100 µM (inactive) | GI50 [54]: > 100 µM (inactive) | GI50 [19]: > 100 µM (inactive) | GI50 [20]: > 100 µM (inactive) | GI50 [21]: > 100 µM (inactive) | GI50 [55]: > 100 µM (inactive) | GI50 [22]: > 100 µM (inactive) | GI50 [23]: > 100 µM (inactive) | GI50 [24]: > 100 µM (inactive) | GI50 [25]: > 100 µM (inactive) | GI50 [26]: > 100 µM (inactive) | GI50 [27]: > 100 µM (inactive) | GI50 [28]: > 100 µM (inactive) | GI50 [29]: > 100 µM (inactive) | GI50 [56]: > 100 µM (inactive) | GI50 [30]: > 100 µM (inactive) | GI50 [31]: > 100 µM (inactive) | GI50 [57]: > 100 µM (inactive) | GI50 [58]: > 100 µM (inactive) | GI50 [32]: > 100 µM (inactive) | GI50 [33]: > 100 µM (inactive) | GI50 [34]: > 100 µM (inactive) | GI50 [36]: > 100 µM (inactive) | GI50 [37]: > 100 µM (inactive) | GI50 [38]: > 100 µM (inactive) | GI50 [39]: > 100 µM (inactive) | GI50 [40]: > 100 µM (inactive) | GI50 [41]: > 100 µM (inactive) | GI50 [42]: > 100 µM (inactive) | GI50 [43]: > 100 µM (inactive) | GI50 [44]: > 100 µM (inactive) | GI50 [45]: > 100 µM (inactive) | GI50 [59]: > 100 µM (inactive) | GI50 [46]: > 100 µM (inactive) | GI50 [49]: > 100 µM (inactive) | GI50 [50]: > 100 µM (inactive)

From ChEMBL document CHEMBL1201862, “PubChem BioAssay data set” (2004)
